How the values were obtained:
Experiment in all cases: cells
Assay type in all cases: cell-based
MOLT-4 = MOLT-4 (Leukemia), 10 μM, 48 hours
RPMI-8226 = RPMI-8226 (Leukemia), 10 μM, 48 hours
A549/ATCC = A549/ATCC (Non-Small Cell Lung Cancer), 10 μM, 48 hours
NCI-H322M = NCI-H322M (Non-Small Cell Lung Cancer), 10 μM, 48 hours
NCI-H522 = NCI-H522 (Non-Small Cell Lung Cancer), 10 μM, 48 hours
HCC-2998 = HCC-2998 (Colon Cancer), 10 μM, 48 hours
HCT-15 = HCT-15 (Colon Cancer), 10 μM, 48 hours
SF-268 = SF-268 (CNS Cancer), 10 μM, 48 hours
SNB-19 = SNB-19 (CNS Cancer), 10 μM, 48 hours
SNB-75 = SNB-75 (CNS Cancer), 10 μM, 48 hours
LOX IMVI = LOX IMVI (Melanoma), 10 μM, 48 hours
MALME-3M = MALME-3M (Melanoma), 10 μM, 48 hours
M14 = M14 (Melanoma), 10 μM, 48 hours
MDA-MB-435 = MDA-MB-435 (Melanoma), 10 μM, 48 hours
UACC-257 = UACC-257 (Melanoma), 10 μM, 48 hours
UACC-62 = UACC-62 (Melanoma), 10 μM, 48 hours
OVCAR-3 = OVCAR-3 (Ovarian Cancer), 10 μM, 48 hours
OVCAR-4 = OVCAR-4 (Ovarian Cancer), 10 μM, 48 hours
OVCAR-5 = OVCAR-5 (Ovarian Cancer), 10 μM, 48 hours
OVCAR-8 = OVCAR-8 (Ovarian Cancer), 10 μM, 48 hours
SK-OV-3 = SK-OV-3 (Ovarian Cancer), 10 μM, 48 hours
ACHN = ACHN (Renal Cancer), 10 μM, 48 hours
CAKI-1 = CAKI-1 (Renal Cancer), 10 μM, 48 hours
TK-10 = TK-10 (Renal Cancer), 10 μM, 48 hours
UO-31 = UO-31 (Renal Cancer), 10 μM, 48 hours
PC-3 = PC-3 (Prostate Cancer), 10 μM, 48 hours
MCF7 = MCF7 (Breast Cancer), 10 μM, 48 hours
MDA-MB-231/ATCC = MDA-MB-231/ATCC (Breast Cancer), 10 μM, 48 hours
MDA-MB-468 = MDA-MB-468 (Breast Cancer), 10 μM, 48 hours

SMILES | growth percentage (MOLT-4) [%] | growth percentage (RPMI-8226) [%] | growth percentage (A549/ATCC) [%] | growth percentage (NCI-H322M) [%] | growth percentage (NCI-H522) [%] | growth percentage (HCC-2998) [%] | growth percentage (HCT-15) [%] | growth percentage (SF-268) [%] | growth percentage (SNB-19) [%] | growth percentage (SNB-75) [%] | growth percentage (LOX IMVI) [%] | growth percentage (MALME-3M) [%] | growth percentage (M14) [%] | growth percentage (MDA-MB-435) [%] | growth percentage (UACC-257) [%] | growth percentage (UACC-62) [%] | growth percentage (OVCAR-3) [%] | growth percentage (OVCAR-4) [%] | growth percentage (OVCAR-5) [%] | growth percentage (OVCAR-8) [%] | also measured
O=C1c2cc(Cl)ccc2-c2c(N3CCOCC3)nc3ccccc3c21 [SJ-8, 9-Chloro-6-morpholino-11H-indeno[1,2-c]quinolin-11-one] | 88.74 | 83.40 | 101.47 | 91.28 | 91.11 | 107.23 | 80.29 | 103.58 | 100.01 | 81.55 | 91.20 | 136.93 | 106.99 | 106.62 | 103.31 | 88.33 | 102.34 | 96.67 | 90.30 | 95.25 | growth percentage (SK-OV-3): 107.26%; growth percentage (ACHN): 81.66%; growth percentage (CAKI-1): 94.99%; growth percentage (TK-10): 101.98%; growth percentage (UO-31): 45.74%; growth percentage (PC-3): 79.64%; growth percentage (MCF7): 52.31%; growth percentage (MDA-MB-231/ATCC): 79.28%; growth percentage (MDA-MB-468): 59.47%
O=C1c2cc(Cl)ccc2-c2c(N3CCSCC3)nc3ccccc3c21 [SJ-9, 9-Chloro-6-thiomorpholino-11H-indeno[1,2-c]quinolin-11-one] | 93.29 | 95.20 | 104.35 | 92.29 | 92.76 | 103.16 | 97.88 | 96.13 | 113.43 | 72.13 | 100.04 | 101.05 | 101.69 | 107.70 | 107.44 | 94.90 | 96.58 | 98.19 | 94.37 | 96.11 | growth percentage (SK-OV-3): 84.60%; growth percentage (ACHN): 86.42%; growth percentage (CAKI-1): 82.68%; growth percentage (TK-10): 121.79%; growth percentage (UO-31): 65.33%; growth percentage (PC-3): 87.77%; growth percentage (MCF7): 49.61%; growth percentage (MDA-MB-231/ATCC): 93.08%; growth percentage (MDA-MB-468): 97.71%
